Source: patent publication US20210254272A1, “TEXTILES HAVING ANTIMICROBIAL PROPERTIES” (Livinguard AG, priority 2015, published 2021)

Test: Leaching test: 100 g fabric soaked in 10 liters stagnant distilled water, 3 days (72 hours)
Type: physicochemical
Details: for Leaching of active ingredients: exhaust 80° C. 60 min, cured 180° C. 2 min, post wash
Description: (§1) The test procedure for leaching was as follows: 100 g (grams) of fabric as well as control fabrics were soaked in 10 liters of stagnant distilled water in a closed wide mouth jar. After 3 days (72 hours), the water samples were tested for leached substances as per standard analytical methods.
as §1, with “methods. A weight of 100 g fabric was chosen because in the preferred embodiment of the water filter as described further below, each filter comprises a strip of fabric with 210 g/m^2, 3 meters long and 0.16 meters wide, which corresponds to 100 g of fabric.” for “methods.”

CCCCCCCCCCCCCCCCCC[N+](C)(C)CCC[Si](OC)(OC)OC [Organosilane, dimethyloctadecyl[3-(trimethoxysilyl)propyl] ammonium chloride]
Leaching of active ingredients (in ppm) (0.2% each in mixture (o.w.f), exhaust 80° C., 60 min, curing 180° C., 2 min, unwashed): 7 ppm
Leaching of active ingredients (in ppm) (0.5% each in mixture (o.w.f), exhaust 80° C., 60 min, curing 180° C., 2 min, unwashed): 9 ppm
Leaching of active ingredients (in ppm) (1.0% each in mixture (o.w.f), exhaust 80° C., 60 min, curing 180° C., 2 min, unwashed): 17 ppm
Leeching in ppm (Exhaust + Wash + pad + Wash, exhaust 0.1% o.w.f. each in mixture, 1 gm/liter pad): 0.1 ppm
Leeching in ppm (Exhaust + Wash + pad + Wash, exhaust 0.1% o.w.f. each in mixture, 5 gm/liter pad): 0.2 ppm
Leeching in ppm (Exhaust + Wash + pad + Wash, exhaust 0.1% o.w.f. each in mixture, 10 gm/liter pad): 0.4 ppm
Leeching in ppm (Exhaust + Wash + pad + Wash, exhaust 0.25% o.w.f. each in mixture, 1 gm/liter pad): 1 ppm
Leeching in ppm (Exhaust + Wash + pad + Wash, exhaust 0.25% o.w.f. each in mixture, 5 gm/liter pad): 2 ppm
Leeching in ppm (Exhaust + Wash + pad + Wash, exhaust 0.25% o.w.f. each in mixture, 10 gm/liter pad): 5 ppm
Leeching in ppm (Exhaust + Wash + pad + Wash, exhaust 0.5 (% o.w.f) each in mixture, 1 gm/liter pad): 3 ppm
Leeching in ppm (Exhaust + Wash + pad + Wash, exhaust 0.5 (% o.w.f) each in mixture, 5 gm/liter pad): 7 ppm
Leeching in ppm (Exhaust + Wash + pad + Wash, exhaust 0.5 (% o.w.f) each in mixture, 10 gm/liter pad): 9 ppm
Leeching in ppm (Exhaust + Wash + pad + Wash, exhaust 1.0% o.w.f. each in mixture, 1 gm/liter pad): 9 ppm
Leeching in ppm (Exhaust + Wash + pad + Wash, exhaust 1.0% o.w.f. each in mixture, 5 gm/liter pad): 10 ppm
Leeching in ppm (Exhaust + Wash + pad + Wash, exhaust 1.0% o.w.f. each in mixture, 10 gm/liter pad): 15 ppm
Leeching in ppm (Exhaust + pad + Wash, exhaust 0.1% o.w.f. each in mixture, 1 gm/liter pad): 143 ppm
Leeching in ppm (Exhaust + pad + Wash, exhaust 0.1% o.w.f. each in mixture, 5 gm/liter pad): 238 ppm
Leeching in ppm (Exhaust + pad + Wash, exhaust 0.1% o.w.f. each in mixture, 10 gm/liter pad): 249 ppm
Leeching in ppm (Exhaust + pad + Wash, exhaust 0.25% o.w.f. each in mixture, 1 gm/liter pad): 265 ppm
Leeching in ppm (Exhaust + pad + Wash, exhaust 0.25% o.w.f. each in mixture, 5 gm/liter pad): 249 ppm
Leeching in ppm (Exhaust + pad + Wash, exhaust 0.25% o.w.f. each in mixture, 10 gm/liter pad): 523 ppm
Leeching in ppm (Exhaust + pad + Wash, exhaust 0.5 (% o.w.f) each in mixture, 1 gm/liter pad): 432 ppm
Leeching in ppm (Exhaust + pad + Wash, exhaust 0.5 (% o.w.f) each in mixture, 5 gm/liter pad): 587 ppm
Leeching in ppm (Exhaust + pad + Wash, exhaust 0.5 (% o.w.f) each in mixture, 10 gm/liter pad): 637 ppm
Leeching in ppm (Exhaust + pad + Wash, exhaust 1.0% o.w.f. each in mixture, 1 gm/liter pad): 536 ppm
Leeching in ppm (Exhaust + pad + Wash, exhaust 1.0% o.w.f. each in mixture, 5 gm/liter pad): 657 ppm
Leeching in ppm (Exhaust + pad + Wash, exhaust 1.0% o.w.f. each in mixture, 10 gm/liter pad): 856 ppm
Leeching in ppm (Exhaust + pad, exhaust 0.1% o.w.f. each in mixture, 1 gm/liter pad): 198 ppm
Leeching in ppm (Exhaust + pad, exhaust 0.1% o.w.f. each in mixture, 5 gm/liter pad): 275 ppm
Leeching in ppm (Exhaust + pad, exhaust 0.1% o.w.f. each in mixture, 10 gm/liter pad): 374 ppm
Leeching in ppm (Exhaust + pad, exhaust 0.25% o.w.f. each in mixture, 1 gm/liter pad): 315 ppm
Leeching in ppm (Exhaust + pad, exhaust 0.25% o.w.f. each in mixture, 5 gm/liter pad): 353 ppm
Leeching in ppm (Exhaust + pad, exhaust 0.25% o.w.f. each in mixture, 10 gm/liter pad): 356 ppm
Leeching in ppm (Exhaust + pad, exhaust 0.5 (% o.w.f) each in mixture, 1 gm/liter pad): 347 ppm
Leeching in ppm (Exhaust + pad, exhaust 0.5 (% o.w.f) each in mixture, 5 gm/liter pad): 462 ppm
Leeching in ppm (Exhaust + pad, exhaust 0.5 (% o.w.f) each in mixture, 10 gm/liter pad): 823 ppm
Leeching in ppm (Exhaust + pad, exhaust 1.0% o.w.f. each in mixture, 1 gm/liter pad): 584 ppm
Leeching in ppm (Exhaust + pad, exhaust 1.0% o.w.f. each in mixture, 5 gm/liter pad): 782 ppm
Leeching in ppm (Exhaust + pad, exhaust 1.0% o.w.f. each in mixture, 10 gm/liter pad): 1243 ppm
Leeching in ppm (Exhaust +Wash + pad, exhaust 0.1% o.w.f. each in mixture, 1 gm/liter pad): 87 ppm
Leeching in ppm (Exhaust +Wash + pad, exhaust 0.1% o.w.f. each in mixture, 5 gm/liter pad): 158 ppm
Leeching in ppm (Exhaust +Wash + pad, exhaust 0.1% o.w.f. each in mixture, 10 gm/liter pad): 231 ppm
Leeching in ppm (Exhaust +Wash + pad, exhaust 0.25% o.w.f. each in mixture, 1 gm/liter pad): 186 ppm
Leeching in ppm (Exhaust +Wash + pad, exhaust 0.25% o.w.f. each in mixture, 5 gm/liter pad): 214 ppm
Leeching in ppm (Exhaust +Wash + pad, exhaust 0.25% o.w.f. each in mixture, 10 gm/liter pad): 327 ppm
Leeching in ppm (Exhaust +Wash + pad, exhaust 0.5 (% o.w.f) each in mixture, 1 gm/liter pad): 375 ppm
Leeching in ppm (Exhaust +Wash + pad, exhaust 0.5 (% o.w.f) each in mixture, 5 gm/liter pad): 432 ppm
Leeching in ppm (Exhaust +Wash + pad, exhaust 0.5 (% o.w.f) each in mixture, 10 gm/liter pad): 564 ppm
Leeching in ppm (Exhaust +Wash + pad, exhaust 1.0% o.w.f. each in mixture, 1 gm/liter pad): 495 ppm
Leeching in ppm (Exhaust +Wash + pad, exhaust 1.0% o.w.f. each in mixture, 5 gm/liter pad): 534 ppm
Leeching in ppm (Exhaust +Wash + pad, exhaust 1.0% o.w.f. each in mixture, 10 gm/liter pad): 645 ppm
Leaching of active ingredients (in ppm) (exhaust 60° C., solution dosage 1% o.w.f, process time 60 min): 23 ppm
Leaching of active ingredients (in ppm) (exhaust 60° C., solution dosage 1% o.w.f, process time 90 min): 14 ppm
Leaching of active ingredients (in ppm) (exhaust 60° C., solution dosage 1% o.w.f, process time 120 min): 14 ppm
Leaching of active ingredients (in ppm) (exhaust 60° C., solution dosage 1% o.w.f, process time 180 min): 12 ppm
Leaching of active ingredients (in ppm) (exhaust 60° C., solution dosage 1% o.w.f, process time 240 min): 14 ppm
Leaching of active ingredients (mixture 0.2% o.w.f. each): 0.2 ppm
Leaching of active ingredients (mixture 0.5% o.w.f. each): 0.3 ppm
Leaching of active ingredients (mixture 1% o.w.f. each): 0.7 ppm
Leaching of active ingredients (in ppm) (exhaust 80° C., 1% o.w.f, 60 min, curing 170° C., curing dwell time 0.5 min): 29 ppm
Leaching of active ingredients (in ppm) (exhaust 80° C., 1% o.w.f, 60 min, curing 170° C., curing dwell time 1.0 min): 25 ppm
Leaching of active ingredients (in ppm) (exhaust 80° C., 1% o.w.f, 60 min, curing 170° C., curing dwell time 1.5 min): 22 ppm
Leaching of active ingredients (in ppm) (exhaust 80° C., 1% o.w.f, 60 min, curing 170° C., curing dwell time 2.0 min): 13 ppm
Leaching of active ingredients (in ppm) (exhaust 80° C., 1% o.w.f, 60 min, curing 170° C., curing dwell time 2.5 min): 17 ppm
Leaching of active ingredients (in ppm) (exhaust 80° C., 1% o.w.f, 60 min, curing 170° C., curing dwell time 3.0 min): 17 ppm
Leaching of active ingredients (in ppm) (exhaust 80° C., 1% o.w.f, 60 min, curing 180° C., curing dwell time 0.5 min): 23 ppm
Leaching of active ingredients (in ppm) (exhaust 80° C., 1% o.w.f, 60 min, curing 180° C., curing dwell time 1.0 min): 13 ppm
Leaching of active ingredients (in ppm) (exhaust 80° C., 1% o.w.f, 60 min, curing 180° C., curing dwell time 1.5 min): 14 ppm
Leaching of active ingredients (in ppm) (exhaust 80° C., 1% o.w.f, 60 min, curing 180° C., curing dwell time 2.0 min): 2 ppm
Leaching of active ingredients (in ppm) (exhaust 80° C., 1% o.w.f, 60 min, curing 180° C., curing dwell time 2.5 min): 12 ppm
Leaching of active ingredients (in ppm) (exhaust 80° C., 1% o.w.f, 60 min, curing 180° C., curing dwell time 3.0 min): 12 ppm
Leaching of active ingredients (in ppm) (exhaust 80° C., 1% o.w.f, 60 min, curing dwell time at 190° C. (title): 0.5 min): 19 ppm
Leaching of active ingredients (in ppm) (exhaust 80° C., 1% o.w.f, 60 min, curing dwell time at 190° C. (title): 1.0 min): 12 ppm
Leaching of active ingredients (in ppm) (exhaust 80° C., 1% o.w.f, 60 min, curing dwell time at 190° C. (title): 1.5 min): 11 ppm
Leaching of active ingredients (in ppm) (exhaust 80° C., 1% o.w.f, 60 min, curing dwell time at 190° C. (title): 2.0 min): 11 ppm
Leaching of active ingredients (in ppm) (exhaust 80° C., 1% o.w.f, 60 min, curing dwell time at 190° C. (title): 2.5 min): 25 ppm
Leaching of active ingredients (in ppm) (exhaust 80° C., 1% o.w.f, 60 min, curing dwell time at 190° C. (title): 3.0 min): 34 ppm
